Laboratory results as given in patent US12421276B2 (priority 2016, dated 2025).

Legend:
[1] = Plasma stability study, human plasma; assay type: in vitro ADME; conditions: Human plasma, 1 μM, 37° C.
In short: (§1)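 Compounds (1 μM, from 0.3 mM DMSO stock) incubated at 37° C in K2 EDTA plasma, quenched at time points with acetonitrile/methanol/formic acid plus internal standard, and analysed by LC/MS/MS. Disappearance measured relative to 0-min control; t½ derived from elimination rate constant of semi-log % remaining versus time regression.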

[2] = Plasma stability study, rat plasma; assay type: in vitro ADME; conditions: Rat plasma, 1 μM, 37° C.
In short: as §1

Row | SMILES | Plasma Stability Half-Life [1] [h] | Plasma Stability (% Parent Remaining) 0 min [1] [%] | Plasma Stability (% Parent Remaining) 60 min [1] [%] | Plasma Stability (% Parent Remaining) 120 min [1] [%] | Plasma Stability (% Parent Remaining) 240 min [1] [%] | Plasma Stability Half-Life [2] [h] | Plasma Stability (% Parent Remaining) 0 min [2] [%] | Plasma Stability (% Parent Remaining) 60 min [2] [%] | Plasma Stability (% Parent Remaining) 120 min [2] [%] | Plasma Stability (% Parent Remaining) 240 min [2] [%]
1 | CCCCCC(=O)NC(Cc1ccc(OC(=O)N2CCN(C)CC2)cc1)C(=O)NC(C(=O)NCCCCCC(N)=O)C(C)CC (centres unmarked) [Compound A20] | 49.295 | 100 | 83 | 87 | 90 | 2.617 | 100 | 73 | 56 | 34
2 | CCCCCC(=O)NC(Cc1ccc(OC(=O)NCCN(C)C)cc1)C(=O)NC(C(=O)NCCCCCC(N)=O)C(C)CC (centres unmarked) [Compound A21] | 1.22 | 100 | 59 | 33 | 11 | 1.16 | 100 | 61 | 34 | 9
